Measured values taken from PMC4207131, “Cyclic Adenosine 5′-Diphosphate Ribose Analogs without a “Southern” Ribose Inhibit ADP-ribosyl Cyclase–Hydrolase CD38” (Journal of Medicinal Chemistry, 2014).
“Also recorded” adds a separate entry of the source. Like-named read-outs stand apart in the source and are kept apart here.

How the values were obtained:
[1] = tested on: Ca^2+-release in permeabilized T-cells; design: method as in PMID 12932045, PMID 19492987; conditions: cited from earlier work
[2] = cited from earlier work
[3] = target: T1, CD38 catalytic domain (shCD38) (Homo sapiens, UniProt P28907, N100D/N164A/N209D/N219D); assay: Inhibition of shCD38-mediated cADPR hydrolysis (fluorimetric cycling assay); assay type: biochemical; design: incubating 1 μM cADPR with 1 μg/mL CD38 catalytic domain for 10 min; made in house; conditions: 1 μM cADPR, 1 μg/mL CD38 catalytic domain, 10 min, 20–24 °C, 25 mM sodium acetate pH 4.5
T1 sequence (P28907 43-300 N100D/N164A/N209D/N219D limits assumed): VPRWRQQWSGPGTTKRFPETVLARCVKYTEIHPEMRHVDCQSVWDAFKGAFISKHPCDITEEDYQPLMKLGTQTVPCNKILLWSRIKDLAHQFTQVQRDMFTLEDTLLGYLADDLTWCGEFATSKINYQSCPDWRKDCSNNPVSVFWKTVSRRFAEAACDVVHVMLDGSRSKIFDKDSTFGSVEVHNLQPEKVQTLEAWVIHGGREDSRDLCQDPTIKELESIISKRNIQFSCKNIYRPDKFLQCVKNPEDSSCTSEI
Protocol: The inhibition of cADPR hydrolysis by various concentrations of analog (0–1 mM) was determined by incubating 1 μM cADPR with 1 μg/mL CD38 catalytic domain for 10 min at 20–24 °C in 25 mM sodium acetate, pH 4.5. The reaction was stopped by the addition of 150 mM HCl. The precipitated protein was filtered, and the pH was neutralized with Tris base. After the mixture was diluted 20-fold, the concentration of the unhydrolyzed cADPR present in the diluted reaction mixture was assayed by the fluorimetric cycling assay as described previously.[52]

[4] = target: T1, CD38 catalytic domain (shCD38); assay: RP-HPLC study of ligand hydrolysis by shCD38; conditions: for hydrolysis by shCD38 at enzyme assay concentration: shCD38 1 μg/mL; for hydrolysis by shCD38 at enzyme assay concentration / hydrolysis by shCD38 at high concentration / time to 50% hydrolysis: ligand 1 mM; for hydrolysis by shCD38 at high concentration / time to 50% hydrolysis: shCD38 4 mg/mL; for time to 50% hydrolysis: Tris-HCl pH 8, room temperature
Protocol: Incubation of 7 (1 mM final concentration) with 4 mg/mL shCD38 was monitored using RP-HPLC.
Therefore, further HPLC experiments were carried out using shCD38 concentrations of 1 μg/mL and either cIDPR or 7 to observe the effect of CD38 under conditions that reflect the enzyme assay (Supporting Information, Figure S3).
The solution containing the CD38 catalytic domain was adjusted to the desired concentration using Tris-HCl buffer (20 mM, pH 8), and 50 μL therefrom was added to the inhibitor (0.05 μmol) in an Eppendorf tube at room temperature. At a given time point, a sample of 5 μL was removed and diluted with 95 μL of Milli-Q water. Then 10 μL of this sample was injected directly into the analytical HPLC system (see section General in Experimental Section), eluting at 1 mL/min with an isocratic ion-pair buffer: 0.17% (m/v) cetrimide and 45% (v/v) phosphate buffer (pH 6.4) in MeOH.

[5] = cited from earlier work; remark: listed apart in the source
[6] = target: T1, CD38 catalytic domain (shCD38); design: incubating 1 μM cADPR with 1 μg/mL CD38 catalytic domain for 10 min; made in house; conditions: equivalent 8-substituted cIDPRs; read-out: IC50, inhibition of shCD38-mediated cADPR hydrolysis; cited from earlier work

**Q.** Which results are given for `O=c1c2nc(Br)n3c2ncn1[C@@H]1O[C@H](COP(=O)(O)OP(=O)(O)OC[C@H]2O[C@@H]3[C@H](O)[C@@H]2O)[C@@H](O)[C@H]1O` [compound 3]?
**A.** Ca2+-release agonism, membrane permeant [1]: stable membrane permeant agonist of Ca^2+ release; chemical and biological stability [2]: Chemically and biologically stable

**Q.** Which IC50 [3] does the source give for `[N-]=[N+]=Nc1nc2c(=O)n3cnc2n1CCCCOP(=O)(O)OP(=O)(O)OC[C@H]1O[C@@H]3[C@H](O)[C@@H]1O` [compound 6, N1-Cyclic-8-azidohypoxanthine-N9-hydroxybutyl Diphosphate Ribose] here?
**A.** The IC50 was 6.4 µM.

**Q.** Which “change of the ligand peak in the control without shCD38” value ([4]; parallel control containing no shCD38) does the source give for `Nc1nc2c(=O)n3cnc2n1CCCCOP(=O)(O)OP(=O)(O)OC[C@H]1O[C@@H]3[C@H](O)[C@@H]1O` [compound 7, N1-Cyclic-8-aminohypoxanthine-N9-hydroxybutyl Diphosphate Ribose] here?
**A.** Its value is “no change in the original peak”.

**Q.** And the “hydrolysis by shCD38 at enzyme assay concentration” value [4]?
**A.** The value was “not hydrolyzed”.

**Q.** And the “hydrolysis by shCD38 at high concentration” value [4]?
**A.** The value was “faster hydrolysis”.

**Q.** And the “time to 50% hydrolysis” value [4]?
**A.** The value was 105 min.

**Q.** And the IC50 [3]?
**A.** Its IC50 is 3.3 µM.

**Q.** With `N=c1c2ncn3c2ncn1[C@@H]1C[C@H](COP(=O)(O)OP(=O)(O)OC[C@H]2O[C@@H]3[C@H](O)[C@@H]2O)[C@@H](O)[C@H]1O` [cADPcR, cyclic adenosine 5′-diphosphate carbocyclic ribose] as the compound, how does the “pKa of the N6-amino dissociation” value [5] read?
**A.** The value was 8.9.

**Q.** With `O=c1c2nc(Br)n3c2ncn1[C@@H]1O[C@H](COP(=O)(O)OP(=O)(O)OCCCC3)[C@@H](O)[C@H]1O` [compound 5, N1-Cyclic-8-bromohypoxanthine-N9-hydroxybutyl Diphosphate Ribose] as the compound, how does the “hydrolysis by shCD38 at high concentration” value [4] read?
**A.** Its value is “hydrolyzed by the enzyme at 4 mg/mL but at a slower rate than 7”.

**Q.** And the IC50 [3]?
**A.** Its IC50 is 27 µM.

**Q.** For `Nc1nc2c(=O)n3cnc2n1C1OC(COP(=O)(O)OP(=O)(O)OCC2OC3C(O)C2O)C(O)C1O` (stereo not drawn) [8-NH2-cIDPR], which IC50 [6] is on record?
**A.** Its IC50 is 56 µM.

**Q.** For `N=c1c2ncn3c2ncn1[C@@H]1O[C@H](COP(=O)(O)OP(=O)(O)OC[C@H]2O[C@@H]3[C@H](O)[C@@H]2O)[C@@H](O)[C@H]1O` [cADPR, Cyclic adenosine 5′-diphosphate ribose], which “pKa of the N6-amino form” value [5] is on record?
**A.** The value was 8.3.

**Q.** What about the “hydrolysis at the N1 link” value ([2]; neutral aqueous solution and physiological conditions) of the same compound?
**A.** The value was “hydrolyzed at the N1 link in both neutral aqueous solution and under physiological conditions”.

**Q.** For `O=c1c2ncn3c2ncn1[C@@H]1O[C@H](COP(=O)(O)OP(=O)(O)OC[C@H]2O[C@@H]3[C@H](O)[C@@H]2O)[C@@H](O)[C@H]1O` [compound 2, N1-cyclic inosine 5′-diphosphate ribose], which “Ca2+-release agonism” value ([1]; permeabilized T-cells) is on record?
**A.** The value was “agonist for Ca^2+-release with almost equivalent potency to cADPR”.

**Q.** And the “hydrolysis by shCD38 at enzyme assay concentration” value ([4]; listed as cIDPR)?
**A.** Its value is “neither cIDPR (2) or 8-NH2-N9-butyl-; also recorded: not hydrolyzed”.

**Q.** And the “hydrolysis by shCD38 at high concentration” value [4]?
**A.** Its value is “hydrolyzed by the enzyme at 4 mg/mL but at a slower rate than 7”.

**Q.** And the “time to 50% hydrolysis” value [4]?
**A.** Its value is 420 min.

**Q.** And the “ionization over the pH range” value [5]?
**A.** The value was “no ionization between 6.8 and 10.9”.

**Q.** What about the “chemical and biological stability” value [2] of the same compound?
**A.** The value was “Chemically and biologically stable”.

**Q.** With `O=c1c2ncn3c2ncn1[C@@H]1O[C@H](COP(=O)(O)OP(=O)(O)OCCCC3)[C@@H](O)[C@H]1O` [compound 4, N1-Cyclic Hypoxanthine-N9-hydroxybutyl Diphosphate Ribose] as the compound, how does the “hydrolysis by shCD38 at high concentration” value [4] read?
**A.** Its value is “hydrolyzed by the enzyme at 4 mg/mL but at a slower rate than 7”.
